Results taken from patent publication US9521846B2, “Template-fixed peptidomimetics with antimicrobial activity” (priority 2006, dated 2016).
≈ marks a conversion by molar mass, not a printed value. Non-standard residues stand in square brackets, D forms with d. Residues, ends and D or L forms follow the SMILES beside them. Cit = NC(=O)NCCC[C@H](N)C(=O)O; Chg = N[C@H](C(=O)O)C1CCCCC1; Tle = CC(C)(C)[C@H](N)C(=O)O; dDab = NCC[C@@H](N)C(=O)O; Dab = NCC[C@H](N)C(=O)O

Columns and labels:
P. aeruginosa ATCC 27853 = assay type: cell-based, Pseudomonas aeruginosa; details: ATCC 27853
Method: (§1) The selective antimicrobial activities of the peptides were determined in 96-well plates (Nunclon polystyrene) by the standard NCCLS broth microdilution method (see ref 1, below) with slight modifications. Innocula of the microorganisms were diluted into Mueller-Hinton (MH) broth+0.02% BSA and compared with a 0.5 Mcfarland standard to give appr. 10^6 colony forming units (CFU)/ml. Aliquots (50 μl) of inoculate were added to 50 μl of MH broth+0.02% BSA containing the peptide in serial two-fold dilutions. The following microorganisms were used to determine antibiotic selectivity of the peptides: Escherichia coli (ATCC 25922), Pseudomonas aeruginosa (P. aeruginosa ATCC 27853, P8191900, P1021903, P1021913, IMP 1 Livermore 3140).

[1] = system: human red blood cells (hRBC); assay: Hemolysis; assay type: cell-based; details: 100
Method: Hemolysis of red blood cells is often employed for assessment of toxicity of related compounds such as protegrin or tachyplesin. Values are given as %-lysis of red blood cells observed at a concentration of 100 μg/ml. Typical values determined for cationic peptides such as protegrin and tachyplesin range between 30-40% with average MIC-values of 1-5 μg/ml over a wide range of pathogens.
The peptides were tested for their hemolytic activity against human red blood cells (hRBC). Fresh hRBC were washed three times with phosphate buffered saline (PBS) by centrifugation for 10 min at 2000×g. Peptides at a concentration of 100 μM were incubated with 20% v/v hRBC for 1 hour at 37° C. The final erythrocyte concentration was approximately 0.9×10^9 cells per ml. A value of 0% and, respectively, 100% cell lysis was determined by incubation of the hRBC in the presence of PBS alone and, respectively, 0.1% Triton X-100 in H2O. The samples were centrifuged, the supernatant was 20-fold diluted in PBS buffer and the optical density (OD) of the sample at […] was measured. The 100% lysis value (OD540H20) gave an OD540 of approximately 1.3-1.8. Percent hemolysis was calculated as follows: (OD540peptide/OD540H20)×100%.

HELA cells (Acc57) = assay: Cytotoxicity assay, MTT reduction (LC 50, GI 50); assay type: cell-based
Method: The cytotoxicity of the peptides to HELA cells (Acc57) and COS-7 cells (CRL-1651) was determined using the MIT reduction assay [see ref. 2 and 3, below]. Briefly the method was as follows: HELA cells and COS-7 cells were seeded at 7.0×10^3 and, respectively, 4.5×10^3 cells per well and grown in 96-well […] plates for 24 hours at 37° C. at 5% CO2. At this point, time zero (Tz) was determined by MTT reduction (see below). The supernatant of the remaining wells was discarded, and fresh medium and the peptides in serial dilutions of 12.5, 25 and 50 μM were dispensed into the wells. Each peptide concentration was assayed in triplicate. Incubation of the cells was continued for 48 hours at 37° C. at 5% CO2. Wells were then washed once with phosphate buffered saline (PBS) and subsequently 100 μl MIT reagent (0.5 mg/ml in medium RPMI1640 and, respectively, DMEM) were added to the wells. This was incubated at 37° C. for 2 hours and subsequently the medium was aspirated and 100 μl isopropanol were added to each well. The absorbance at 595 nm of the solubilized product was measured (OD595peptide). For each concentration averages were calculated from triplicates. The percentage of growth was calculated as follows: (OD595peptide-OD595Tz-OD595Empty well)/(OD595Tz-OD595Empty well)×100% and was plotted for each peptide concentration.
The LC 50 values (Lethal Concentration, defined as the concentration that kills 50% of the cells) were determined for each peptide by using the trend line function of EXCEL (Microsoft Office 2000) for the concentrations (50, 25, 12.5 and 0 μM), the corresponding growth percentages and the value −50, (=TREND(C50:C0,%50:%0,−50)). The GI 50 (Growth Inhibition) concentrations were calculated for each peptide by using a trend line function for the concentrations (50, 25, 12.5 and 0 […]), the corresponding percentages and the value 50, (=TREND (C50:C0,%50:%0,50).

[2] = system: Pseudomonas aeruginosa IMP 1 Livermore 3140; assay type: cell-based; details: IMP 1 Livermore 3140
Method: as §1

[3] = system: Pseudomonas aeruginosa P1021913; assay type: cell-based; details: P1021913
Method: as §1

[4] = system: Pseudomonas aeruginosa P1021903; assay type: cell-based; details: P1021903
Method: as §1

[5] = system: Pseudomonas aeruginosa P8191900; assay type: cell-based; details: P8191900
Method: as §1

| MIC P. aeruginosa ATCC 27853 (P. aeruginosa ATCC 27853) [µg/mL] | Average MIC (P. aeruginosa) [µg/mL] | MIC P. aeruginosa IMP1 Livermore 3140 [2] [µg/mL] | MIC P. aeruginosa P1021913 [3] [µg/mL] | MIC P. aeruginosa P1021903 [4] [µg/mL] | MIC P. aeruginosa P8191900 [5] [µg/mL] | Structure (SMILES) | Hemolysis at 100 μg/ml [1] [%] | Cytotoxicity GI50 Hela cells (HELA cells (Acc57)) [µM] |
| --- | --- | --- | --- | --- | --- | --- | --- | --- |
| 0.50 (≈ 0.305 µM) | >1 | >2 | 2.25 (≈ 1.37 µM) | 1.25 (≈ 0.763 µM) | 2.50 (≈ 1.53 µM) | CC[C@H](C)[C@@H]1NC(=O)[C@H](Cc2c[nH]c3ccccc23)NC(=O)[C@H]([C@@H](C)O)NC(=O)[C@@H]2CCCN2C(=O)[C@H]2CCCN2C(=O)[C@H](CCN)NC(=O)[C@H](CCC(=O)O)NC(=O)[C@H](CCN)NC(=O)[C@H](CCN)NC(=O)[C@H](Cc2c[nH]c3ccccc23)NC(=O)[C@H](CCN)NC(=O)[C@H](CCN)NC(=O)[C@H](CCCCN)NC(=O)[C@H](CCN)NC1=O [Example 15] (cyclo(TWI[Dab]K[Dab][Dab]W[Dab][Dab]E[Dab][dP]P)) | 0.3 | 50 |
| 0.09 (≈ 0.0556 µM) | 0.40 | 1.00 (≈ 0.618 µM) | 0.31 (≈ 0.192 µM) | 0.21 (≈ 0.13 µM) | 0.40 (≈ 0.247 µM) | CC[C@H](C)[C@@H]1NC(=O)[C@H](Cc2c[nH]c3ccccc23)NC(=O)[C@H]([C@@H](C)O)NC(=O)[C@@H]2CCCN2C(=O)[C@H]2CCCN2C(=O)[C@H](CCN)NC(=O)[C@H](C)NC(=O)[C@H](CCN)NC(=O)[C@H](CCN)NC(=O)[C@H](Cc2c[nH]c3ccccc23)NC(=O)[C@H](Cc2c[nH]cn2)NC(=O)[C@H](CCN)NC(=O)[C@H](CCCCN)NC(=O)[C@H](CCN)NC1=O [Example 21] (cyclo(TWI[Dab]K[Dab]HW[Dab][Dab]A[Dab][dP]P)) | 0.4 | 50 |
| 0.25 (≈ 0.159 µM) | 0.29 | 0.50 (≈ 0.318 µM) | 0.50 (≈ 0.318 µM) | 0.125 (≈ 0.0795 µM) | 0.06 (≈ 0.0382 µM) | CC[C@H](C)[C@@H]1NC(=O)[C@H](Cc2ccc(O)cc2)NC(=O)[C@H](CC(=O)O)NC(=O)[C@@H]2CCCN2C(=O)[C@H]2CCCN2C(=O)[C@H](CCN)NC(=O)[C@H](C)NC(=O)[C@H](CCN)NC(=O)[C@H](CCN)NC(=O)[C@H](Cc2c[nH]c3ccccc23)NC(=O)[C@H](CCN)NC(=O)[C@@H](CCN)NC(=O)[C@H](CCCCN)NC(=O)[C@H](CCN)NC1=O [Example 42] (cyclo(DYI[Dab]K[dDab][Dab]W[Dab][Dab]A[Dab][dP]P)) | 0.2 | 50 |
| 0.09 (≈ 0.0559 µM) | 0.28 | 0.50 (≈ 0.311 µM) | 0.21 (≈ 0.131 µM) | 0.30 (≈ 0.186 µM) | 0.30 (≈ 0.186 µM) | CC[C@H](C)[C@@H]1NC(=O)[C@H](Cc2c[nH]c3ccccc23)NC(=O)[C@H]([C@@H](C)O)NC(=O)[C@@H]2CCCN2C(=O)[C@H]2CCCN2C(=O)[C@H](CCN)NC(=O)[C@H](C)NC(=O)[C@H](CCN)NC(=O)[C@H](CCCCN)NC(=O)[C@H](Cc2c[nH]c3ccccc23)NC(=O)[C@H](CCN)NC(=O)[C@H](CCN)NC(=O)[C@H](CCCCN)NC(=O)[C@H](CCN)NC1=O [Example 27] (cyclo(TWI[Dab]K[Dab][Dab]WK[Dab]A[Dab][dP]P)) | 0.6 | 50 |
| 0.06 (≈ 0.0367 µM) | 0.28 | 0.30 (≈ 0.183 µM) | 0.81 (≈ 0.495 µM) | 0.10 (≈ 0.0611 µM) | 0.10 (≈ 0.0611 µM) | CC[C@H](C)[C@@H]1NC(=O)[C@H](Cc2c[nH]c3ccccc23)NC(=O)[C@H](CCCNC(N)=O)NC(=O)[C@@H]2CCCN2C(=O)[C@H]2CCCN2C(=O)[C@H](CCN)NC(=O)[C@H](C)NC(=O)[C@H](CCN)NC(=O)[C@H](CCN)NC(=O)[C@H](Cc2c[nH]c3ccccc23)NC(=O)[C@H](CCN)NC(=O)[C@H](CCN)NC(=O)[C@H](CCCCN)NC(=O)[C@H](CCN)NC1=O [Example 18] (cyclo([Cit]WI[Dab]K[Dab][Dab]W[Dab][Dab]A[Dab][dP]P)) | 0.4 | 50 |
| 0.03 (≈ 0.0193 µM) | 0.06 | 0.10 (≈ 0.0642 µM) | 0.10 (≈ 0.0642 µM) | 0.03 (≈ 0.0193 µM) | 0.05 (≈ 0.0321 µM) | CC[C@H](C)[C@@H]1NC(=O)[C@H](Cc2ccc(O)cc2)NC(=O)[C@H]([C@@H](C)O)NC(=O)[C@@H]2CCCN2C(=O)[C@H]2CCCN2C(=O)[C@H](CCN)NC(=O)[C@H](C)NC(=O)[C@H](CCN)NC(=O)[C@H](CCN)NC(=O)[C@H](Cc2c[nH]c3ccccc23)NC(=O)[C@H](CCN)NC(=O)[C@H](CCN)NC(=O)[C@H](CCCCN)NC(=O)[C@H](CCN)NC1=O [Example 19] (cyclo(TYI[Dab]K[Dab][Dab]W[Dab][Dab]A[Dab][dP]P)) | 0.2 | 50 |
| 0.06 (≈ 0.037 µM) | 0.22 | 0.43 (≈ 0.265 µM) | 0.24 (≈ 0.148 µM) | 0.18 (≈ 0.111 µM) | 0.18 (≈ 0.111 µM) | CC[C@H](C)[C@@H]1NC(=O)[C@H](Cc2c[nH]c3ccccc23)NC(=O)[C@H]([C@@H](C)O)NC(=O)[C@@H]2CCCN2C(=O)[C@H]2CCCN2C(=O)[C@H](CCN)NC(=O)[C@H](C(C)(C)C)NC(=O)[C@H](CCN)NC(=O)[C@H](CCN)NC(=O)[C@H](Cc2c[nH]c3ccccc23)NC(=O)[C@H](CCN)NC(=O)[C@H](CCN)NC(=O)[C@H](CCCCN)NC(=O)[C@H](CCN)NC1=O [Example 36] (cyclo(TWI[Dab]K[Dab][Dab]W[Dab][Dab][Tle][Dab][dP]P)) | 0.1 | 50 |
| 0.05 (≈ 0.0311 µM) | 0.25 | 0.43 (≈ 0.268 µM) | 0.31 (≈ 0.193 µM) | 0.29 (≈ 0.18 µM) | 0.18 (≈ 0.112 µM) | C[C@@H]1NC(=O)[C@H](CCN)NC(=O)[C@H](CCN)NC(=O)[C@H](Cc2c[nH]c3ccccc23)NC(=O)[C@H](CCN)NC(=O)[C@H](CCN)NC(=O)[C@H](CCCCN)NC(=O)[C@H](CCN)NC(=O)[C@H](C2CCCCC2)NC(=O)[C@H](Cc2c[nH]c3ccccc23)NC(=O)[C@H]([C@@H](C)O)NC(=O)[C@@H]2CCCN2C(=O)[C@H]2CCCN2C(=O)[C@H](CCN)NC1=O [Example 33] (cyclo(TW[Chg][Dab]K[Dab][Dab]W[Dab][Dab]A[Dab][dP]P)) | 0.1 | 50 |
